In the test the test system is mutant Huntington (HTT) protein. Description: HTT Mutant HTRF iPSC assay (mHTT protein lowering). In kind it is cell-based. Particulars: human iPSC derived from a HTT patient with a poly-Q49 mutation. For orientation: Time-resolved FRET reads energy transfer from a long-lived donor to a nearby acceptor.

The structures appear in SMILES notation. A value given as a limit tells only on which side of the number the result lay.

Consider `Cc1cn2nc(-c3cc(F)c4nc(C5CCN(C)CC5)oc4c3)cc(C)c2n1` [Compound 456, 6-(2,8-dimethylimidazo[1,2-b]pyridazin-6-yl)-4-fluoro-2-(1-methylpiperidin-4-yl)benzo[d]oxazole], for which the IC50 (commonly the point on the concentration scale where inhibition reaches its midpoint) was in the range of 100 to 1000 nM.
As for `Cc1cn2nc(-c3cc(F)c4nc(C5CC6(CCN(C)CC6)C5)oc4c3)cc(C)c2n1` [Compound 458, 6-(2,8-dimethylimidazo[1,2-b]pyridazin-6-yl)-4-fluoro-2-(7-methyl-7-azaspiro[3.5]nonan-2-yl)benzo[d]oxazole], the figure is 100 to 1000 nM; as for `Cc1cn2nc(-c3cc(F)c4nc(CC5CCN(C)CC5)oc4c3)cc(C)c2n1` [Compound 459, 6-(2,8-dimethylimidazo[1,2-b]pyridazin-6-yl)-4-fluoro-2-((1-methylpiperidin-4-yl)methyl)benzo[d] oxazole], less than 100 nM.
The value for `Cc1cn2nc(-c3cc(F)c4nc(N5CC6CN(C)CC6C5)oc4c3)cc(C)c2n1` (centres unmarked) [Compound 466, 6-(2,8-dimethylimidazo[1,2-b]pyridazin-6-yl)-4-fluoro-2-(5-methylhexahydropyrrolo [3,4-c]pyrrol-2(1H)-yl)benzo[d]oxazole] was 100 to 1000 nM; that for `Cc1cn2nc(-c3cc(F)c4nc(N(C)C5CC(C)(C)NC(C)(C)C5)oc4c3)cc(C)c2n1` [Compound 467, 6-(2,8-dimethylimidazo[1,2-b]pyridazin-6-yl)-4-fluoro-N-methyl-N-(2,2,6,6-tetramethylpiperidin-4-yl)benzo[d]oxazol-2-amine] was 100 to 1000 nM; that for `Cc1cn2nc(-c3cc(F)c4nc(N5CCC6(CCN(C)CC6)C5)oc4c3)cc(C)c2n1` [Compound 468, 6-(2,8-dimethylimidazo[1,2-b]pyridazin-6-yl)-4-fluoro-2-(8-methyl-2,8-diazaspiro[4.5]decan-2-yl)benzo[d]oxazole] was less than 100 nM.
Regarding `Cc1cn2nc(-c3cc(F)c4nc(N(C)C5CCN(C(C)C)CC5)oc4c3)cc(C)c2n1` [Compound 469, 6-(2,8-dimethylimidazo[1,2-b]pyridazin-6-yl)-4-fluoro-N-(1-isopropylpiperidin-4-yl)-N-methylbenzo[d]oxazol-2-amine], the IC50 is 100 to 1000 nM.
As for `Cc1cn2nc(-c3cc(F)c4nc(N5CCC6(CCN(C)C6)CC5)oc4c3)cc(C)c2n1` [Compound 470, 6-(2,8-dimethylimidazo[1,2-b]pyridazin-6-yl)-4-fluoro-2-(2-methyl-2,8-diazaspiro[4.5]decan-8-yl)benzo[d]oxazole], the figure is less than 100 nM; as for `CCN1CCC(Nc2nc3c(F)cc(-c4cc(C)c5nc(C)cn5n4)cc3o2)CC1C` (centres unmarked) [Compound 471, 6-(2,8-dimethylimidazo[1,2-b]pyridazin-6-yl)-N-(1-ethyl-2-methylpiperidin-4-yl)-4-fluorobenzo[d]oxazol-2-amine], less than 100 nM.
Consider `Cc1cn2nc(-c3cc(F)c4nc(N5CCC6(CN(C)C6)C5)oc4c3)cc(C)c2n1` [Compound 472, 6-(2,8-dimethylimidazo[1,2-b]pyridazin-6-yl)-4-fluoro-2-(2-methyl-2,6-diazaspiro[3.4]octan-6-yl)benzo[d]oxazole], for which the IC50 was in the range of 100 to 1000 nM.
As for `Cc1cn2nc(-c3cc(F)c4nc(N(C)C5CCN(C)C(C)C5)oc4c3)cc(C)c2n1` (centres unmarked) [Compound 473, 6-(2,8-dimethylimidazo[1,2-b]pyridazin-6-yl)-N-(1,2-dimethylpiperidin-4-yl)-4-fluoro-N-methylbenzo[d]oxazol-2-amine], the figure is 100 to 1000 nM.
As for `Cc1cn2nc(-c3cc(F)c4nc(N5CCC(C)(CN(C)C)C5)oc4c3)cc(C)c2n1` (centres unmarked) [Compound 474, 1-(1-(6-(2,8-dimethylimidazo[1,2-b]pyridazin-6-yl)-4-fluorobenzo[d]oxazol-2-yl)-3-methylpyrrolidin-3-yl)-N,N-dimethylmethanamine], the figure is 100 to 1000 nM; as for `Cc1cn2nc(-c3cc(F)c4nc(N5CCC(N(C)C)CC5)oc4c3)cc(C)c2n1` [Compound 475, 1-(6-(2,8-dimethylimidazo[1,2-b]pyridazin-6-yl)-4-fluorobenzo[d]oxazol-2-yl)-N,N-dimethylpiperidin-4-amine], less than 100 nM; as for `Cc1cn2nc(-c3cc(F)c4nc(N5CCC(N6CCCC6)C5)oc4c3)cc(C)c2n1` (centres unmarked) [Compound 476, 2-([1,3′-bipyrrolidin]-1′-yl)-6-(2,8-dimethylimidazo[1,2-b]pyridazin-6-yl)-4-fluorobenzo[d]oxazole], 100 to 1000 nM.
The value for `Cc1cn2nc(-c3cc(F)c4nc(N5CCC(N6CCCC6)CC5)oc4c3)cc(C)c2n1` [Compound 477, 6-(2,8-dimethylimidazo[1,2-b]pyridazin-6-yl)-4-fluoro-2-(4-(pyrrolidin-1-yl)piperidin-1-yl)benzo[d]oxazole] was 100 to 1000 nM; that for `Cc1cn2nc(-c3cc(F)c4nc(NC5CCN(C6CCC6)CC5)oc4c3)cc(C)c2n1` [Compound 478, N-(1-cyclobutylpiperidin-4-yl)-6-(2,8-dimethylimidazo[1,2-b]pyridazin-6-yl)-4-fluorobenzo[d]oxazol-2-amine] was less than 100 nM; that for `CCN1CCC(Nc2nc3c(F)cc(-c4cc(C)c5nc(C)cn5n4)cc3o2)CC1` [Compound 479, 6-(2,8-dimethylimidazo[1,2-b]pyridazin-6-yl)-N-(1-ethylpiperidin-4-yl)-4-fluorobenzo[d]oxazol-2-amine] was less than 100 nM.
For `COCCN1CCC(Nc2nc3c(F)cc(-c4cc(C)c5nc(C)cn5n4)cc3o2)CC1` [Compound 480, 6-(2,8-dimethylimidazo[1,2-b]pyridazin-6-yl)-4-fluoro-N-(1-(2-methoxyethyl)piperidin-4-yl)benzo[d]oxazol-2-amine], the IC50 is less than 100 nM.
`Cc1cn2nc(-c3cc(F)c4nc(NC5CCN(C6CCOC6)CC5)oc4c3)cc(C)c2n1` (centres unmarked) [Compound 481, 6-(2,8-dimethylimidazo[1,2-b]pyridazin-6-yl)-4-fluoro-N-(1-(tetrahydrofuran-3-yl)piperidin-4-yl)benzo[d]oxazol-2-amine] returned a concentration for half-maximal inhibition (IC50) of less than 100 nM.
As for `Cc1cn2nc(-c3cc(F)c4nc(NC5CCN6CCCC6C5)oc4c3)cc(C)c2n1` (centres unmarked) [Compound 482, 6-(2,8-dimethylimidazo[1,2-b]pyridazin-6-yl)-4-fluoro-N-(octahydroindolizin-7-yl)benzo[d]oxazol-2-amine], the figure is less than 100 nM; as for `Cc1cn2nc(-c3cc(F)c4nc(N5CCC(CN6CCCC6)C5)oc4c3)cc(C)c2n1` (centres unmarked) [Compound 483, 6-(2,8-dimethylimidazo[1,2-b]pyridazin-6-yl)-4-fluoro-2-(3-(pyrrolidin-1-ylmethyl)pyrrolidin-1-yl)benzo[d]oxazole], 100 to 1000 nM; as for `Cc1cn2nc(-c3cc(F)c4nc(NC5CC(C)NC(C)C5)oc4c3)cc(C)c2n1` (centres unmarked) [Compound 484, 6-(2,8-dimethylimidazo[1,2-b]pyridazin-6-yl)-N-(2,6-dimethylpiperidin-4-yl)-4-fluorobenzo[d]oxazol-2-amine], less than 100 nM.
The value for `Cc1cn2nc(-c3cc(F)c4nc(NC5CCNC(C)(C)C5)oc4c3)cc(C)c2n1` (centres unmarked) [Compound 485, 6-(2,8-dimethylimidazo[1,2-b]pyridazin-6-yl)-N-(2,2-dimethylpiperidin-4-yl)-4-fluorobenzo[d]oxazol-2-amine] was less than 100 nM.
`Cc1cn2nc(-c3cc(F)c4nc(N5CCC(CN(C)CC6CC6)C5)oc4c3)cc(C)c2n1` (centres unmarked) [Compound 489, 1-cyclopropyl-N-((1-(6-(2,8-dimethylimidazo[1,2-b]pyridazin-6-yl)-4-fluorobenzo[d]oxazol-2-yl)pyrrolidin-3-yl)methyl)-N-methylmethanamine] displayed an IC50 of less than 100 nM.
As for `Cc1cn2nc(-c3cc(F)c4nc(N5CCCC(N6CCCCC6)C5)oc4c3)cc(C)c2n1` (centres unmarked) [Compound 490, 2-([1,3′-bipiperidin]-1′-yl)-6-(2,8-dimethylimidazo[1,2-b]pyridazin-6-yl)-4-fluorobenzo[d]oxazole], the figure is 100 to 1000 nM; as for `Cc1cn2nc(-c3cc(F)c4nc(N5CCC(CN(C)C)C5)oc4c3)cc(C)c2n1` (centres unmarked) [Compound 491, 1-(1-(6-(2,8-dimethylimidazo[1,2-b]pyridazin-6-yl)-4-fluorobenzo[d]oxazol-2-yl)pyrrolidin-3-yl)-N,N-dimethylmethanamine], 100 to 1000 nM.
In turn, `CCC1(N(C)C)CCN(c2nc3c(F)cc(-c4cc(C)c5nc(C)cn5n4)cc3o2)CC1` [Compound 492, 1-(6-(2,8-dimethylimidazo[1,2-b]pyridazin-6-yl)-4-fluorobenzo[d]oxazol-2-yl)-4-ethyl-N,N-dimethylpiperidin-4-amine] registered an IC50 of less than 100 nM.
As for `Cc1cn2nc(-c3cc(F)c4nc(N5CCC56CCN(C)CC6)oc4c3)cc(C)c2n1` [Compound 493, 6-(2,8-dimethylimidazo[1,2-b]pyridazin-6-yl)-4-fluoro-2-(7-methyl-1,7-diazaspiro[3.5]nonan-1-yl)benzo[d]oxazole], the figure is 100 to 1000 nM.
As for `Cc1cn2nc(-c3cc(F)c4nc(N5CCC(N6CCC6)CC5)oc4c3)cc(C)c2n1` [Compound 494, 2-(4-(azetidin-1-yl)piperidin-1-yl)-6-(2,8-dimethylimidazo[1,2-b]pyridazin-6-yl)-4-fluorobenzo[d]oxazole], the figure is 100 to 1000 nM; as for `Cc1cn2nc(-c3cc(F)c4nc(N5CCC(N(C)C)CC5)oc4c3)cc(C(F)F)c2n1` [Compound 495, 1-(6-(8-(difluoromethyl)-2-methylimidazo[1,2-b]pyridazin-6-yl)-4-fluorobenzo[d]oxazol-2-yl)-N,N-dimethylpiperidin-4-amine], less than 100 nM; as for `Cc1nc2c(C)cc(-c3cc(F)c4nc(N5CCC(N(C)C)CC5)oc4c3)nn2n1` [Compound 496, 1-(6-(2,8-dimethyl-[1,2,4]triazolo[1,5-b]pyridazin-6-yl)-4-fluorobenzo[d]oxazol-2-yl)-N,N-dimethylpiperidin-4-amine], 100 to 1000 nM.
As for `Cc1cn2nc(-c3cc(F)c4nc(N5CCC(N(C)C)CC5)oc4c3)cc2c(C)n1` [Compound 497, 1-(6-(4,6-dimethylpyrazolo[1,5-a]pyrazin-2-yl)-4-fluorobenzo[d]oxazol-2-yl)-N,N-dimethylpiperidin-4-amine], the figure is 100 to 1000 nM.

Values taken from patent US20250353841A1 (BIOGEN MA INC., priority 2022, published 2025).
